Results: paper PMC6539525, “Design, Synthesis, and Mechanism of Dihydroartemisinin–Coumarin Hybrids as Potential Anti-Neuroinflammatory Agents” (Molecules, 2019)
pIC50: −log10 of the molar value. Like-named read-outs stand apart in the source and are kept apart here.

How the values were obtained:
HT-29 cells = experiment: MTT cytotoxicity in HT-29 cells; type: cell-based, Human; conditions: Homo sapiens, MTT
Experimental: (§1) As the anti-neuroinflammatory agents for cancer patients, all newly synthesized compounds were evaluated in vitro for antitumor activity against human breast cancer cell line MDA-MB-231, colorectal cancer cells HT-29 and HCT-116, and lung cancer cell line A549 by using the standard MTT method, respectively. Doxorubicin (DOX) and DHA were used as the reference standard. Additionally, owing to the rapid proliferation, the tumor cells actually was always in hypoxia condition. Therefore, the in vitro cytotoxicity was evaluated in two different conditions (hypoxia and normoxia).
After recovery, the cells were cultured in 96-well plates for 24 h at 37 °C in a humidified atmosphere with 95% air and 5% CO2. After treated with different tested compounds, the hypoxia groups were placed in a sealed hypoxia incubator chamber (Stemcell Technologies, Inc., Vancouver, BC, Canada) filled with 5% CO2 and 95% N2 for 24 h, and then transferred to the incubator chamber filled with air for 72 h. […]
(§2) Cancer cells HT-29 (Human Colorectal Adenocarcinoma cell line), MDA-MB-231 (Human Breast Cancer cell line), HCT-116 (Human Colorectal Carcinoma cell line), and A549 (Human Lung Adenocarcinomic cell line) were from ATCC.
When the adherent cells reached 80% confluence, the culture medium was discarded. The cells were digested by trypsin and collected after centrifugation. The fresh culture medium was gently blown into it to form single-cell suspension. Cell suspension will be diluted to 1.5–3 × 10^4 cells/mL. Each hole of 96-well plates was added 100 μL cell suspension and incubated for 24 h (5% CO2; 37 °C). Then the holes were added different concentrations of tested compounds. The early screening concentration is set to 100 μM, 50 μM, 25 μM, 12.5 μM, and 6.25 μM. Three replicates were made for each concentration of the tested compounds. […] The medium was discarded and each well was added 100 μL DMSO to dissolve the formazan blue. Absorbance was measured at 570 nm with a microplate reader (Synergy-HT, BioTek Instruments, Winooski, VT, USA). […]

MDA-MB-231 cells = experiment: MTT cytotoxicity in MDA-MB-231 cells; type: cell-based; conditions: Homo sapiens
Experimental: as §1
(§3) After recovery, the cells were cultured in 96-well plates for 24 h at 37 °C in a humidified atmosphere with 95% air and 5% CO2. After treated with different tested compounds, the hypoxia groups were placed in a sealed hypoxia incubator chamber (Stemcell Technologies, Inc., Vancouver, BC, Canada) filled with 5% CO2 and 95% N2 for 24 h, and then transferred to the incubator chamber filled with air for 72 h. On the contrary, the normoxia groups were cultured under air condition for 96h.
as §2
(§4) When the adherent cells reached 80% confluence, the culture medium was discarded. The cells were digested by trypsin and collected after centrifugation. The fresh culture medium was gently blown into it to form single-cell suspension. Cell suspension will be diluted to 1.5–3 × 10^4 cells/mL. Each hole of 96-well plates was added 100 μL cell suspension and incubated for 24 h (5% CO2; 37 °C). Then the holes were added different concentrations of tested compounds. The early screening concentration is set to 100 μM, 50 μM, 25 μM, 12.5 μM, and 6.25 μM. Three replicates were made for each concentration of the tested compounds. After the cells were grown for 96h, 20 μL MTT (5 mg/mL) was added to each well and incubated for 4 h. The medium was discarded and each well was added 100 μL DMSO to dissolve the formazan blue. Absorbance was measured at 570 nm with a microplate reader (Synergy-HT, BioTek Instruments, Winooski, VT, USA).
(§5) Hypoxia condition: The cells were treated with different concentration of tested compounds, placed in hypoxia chamber (Catalog Number 27310, Stemcell Technologies, Inc., Vancouver, BC, Canada), and incubated for 24 h ([…]; 37 °C). Then the cells were placed in normoxia condition (5% CO2; 37 °C) and incubated for 72 h.

HCT-116 cells = experiment: MTT cytotoxicity in HCT-116 cells; type: cell-based; conditions: Homo sapiens
Experimental: as §1, §3, §2, §4, §5

A549 cells = experiment: MTT cytotoxicity in A549 cells; type: cell-based; conditions: Homo sapiens
Experimental: as §1, §3, §2, §4, §5

[1] = test system: NO release of LPS-induced microglial N9 cells; experiment: Inhibition of NO release in LPS-induced N9 cells (Griess); type: cell-based, murine; conditions: Mus musculus, 1 μg/mL LPS for 48 h, NO level in medium
Experimental: (§6) The anti-neuroinflammatory activity of DCH was evaluated and then the representative compounds were selected for the further study. […] In addition, in order to exclude the death influence, MTT-IC20 of all the compounds were measured. […] The exact reason was still unclear, but we supposed that it might be related to the homeostasis of cells. The tumor cells actually were always in hypoxia condition, in which DCH could promote the cytotoxic activity against tumor cells. In brief, DCH could reduce the release of NO caused by LPS-induced microglial cells.
(§7) N9 cells, which were in the logarithmic phase, were incubated for 24 h by adherent culture. Subsequently, the medium was changed to new one without serum. The cells were treated with different concentration of tested compounds. After specific time in the LPS condition, the supernatants were collected and analyzed.
The nitrite levels in medium were determined by Griess reaction. The absorbance was measured at 540 nm using a microplate reader.

[2] = MTT cytotoxicity in N9 cells; type: cell-based, murine; conditions: mouse, N9 microglial cells, cytotoxic activity
Experimental: as §6, §4, §7

[3] = HT-29, hypoxia 24 h then normoxia 72 h, read-out: IC50 HT-29 Hypoxia
[4] = HT-29, normoxia 96 h, read-out: IC50 HT-29 Normoxia
[5] = MDA-MB-231, hypoxia 24 h then normoxia 72 h, read-out: IC50 MDA-MB-231 Hypoxia
[6] = MDA-MB-231, normoxia 96 h, read-out: IC50 MDA-MB-231 Normoxia
[7] = HCT-116, hypoxia 24 h then normoxia 72 h, read-out: IC50 HCT-116 Hypoxia
[8] = HCT-116, normoxia 96 h, read-out: IC50 HCT-116 Normoxia
[9] = A549, hypoxia 24 h then normoxia 72 h, read-out: IC50 A549 Hypoxia
[10] = A549, normoxia 96 h, read-out: IC50 A549 Normoxia

Structure (SMILES) | pIC50 [1] | pIC50 (HT-29 cells; [3]) | pIC50 (HT-29 cells; [4]) | pIC50 (MDA-MB-231 cells; [5]) | pIC50 (MDA-MB-231 cells; [6]) | pIC50 (HCT-116 cells; [7]) | pIC50 (HCT-116 cells; [8]) | pIC50 (A549 cells; [9]) | pIC50 (A549 cells; [10]) | IC20 [2] [µM]
Cc1cc(C)c2c(Cn3cc(CO[C@H]4O[C@@H]5O[C@@]6(C)CC[C@H]7[C@H](C)CC[C@@H]([C@H]4C)[C@@]57OO6)nn3)cc(=O)oc2c1 [3g, 5,7-dimethyl-4-((4-((10S)-dihydroartemisininoxy)methyl-1H-1,2,3-triazol-1-yl)-methyl)-2H-1-chromen-2-one] | < 5.00 | 4.80 | 4.62 | < 4.00 | < 4.00 | < 4.00 | < 4.00 | < 4.00 | < 4.00 | > 10
Cc1ccc2c(Cn3cc(CO[C@H]4O[C@@H]5O[C@@]6(C)CC[C@H]7[C@H](C)CC[C@@H]([C@H]4C)[C@@]57OO6)nn3)cc(=O)oc2c1 [3h, 7-methyl-4-((4-((10S)-dihydroartemisininoxy)methyl-1H-1,2,3-triazol-1-yl)-methyl)-2H-1-chromen-2-one] | < 5.00 | 4.49 | < 4.00 | < 4.00 | < 4.00 | < 4.00 | < 4.00 | < 4.00 | < 4.00 | > 10
Cc1ccc2c(Cn3cc(CCO[C@H]4O[C@@H]5O[C@@]6(C)CC[C@H]7[C@H](C)CC[C@@H]([C@H]4C)[C@@]57OO6)nn3)cc(=O)oc2c1 [4h, 7-methyl-4-((4-(2-((10S)-dihydroartemisininoxy)ethyl)-1H-1,2,3-triazol-1-yl)-methyl)-2H-1-chromen-2-one] | 5.24 | 4.25 | < 4.00 | < 4.00 | < 4.00 | < 4.00 | < 4.00 | < 4.00 | < 4.00 | > 10
COc1cccc2c1C(=O)c1c(O)c3c(c(O)c1C2=O)C[C@@](O)(C(=O)CO)C[C@@H]3O[C@H]1C[C@H](N)[C@H](O)[C@H](C)O1 [DOX, Doxorubicin, reference compound] | – | > 7.00 | 6.96 | 6.16 | 5.86 | < 5.70 | 5.89 | < 5.70 | < 5.70 | –
CN(C)c1ccc(O)c2c1C[C@H]1C[C@H]3[C@H](N(C)C)C(O)=C(C(N)=O)C(=O)[C@@]3(O)C(O)=C1C2=O [Minocycline, reference compound] | < 5.00 | – | – | – | – | – | – | – | – | > 10

The next lines start with results.

pIC50 [1] | Structure (SMILES) | pIC50 (HT-29 cells; [3]) | pIC50 (HT-29 cells; [4]) | pIC50 (MDA-MB-231 cells; [5]) | pIC50 (MDA-MB-231 cells; [6]) | pIC50 (HCT-116 cells; [7]) | pIC50 (HCT-116 cells; [8]) | pIC50 (A549 cells; [9]) | pIC50 (A549 cells; [10]) | IC20 [2] [µM]
6.43 | C[C@H]1[C@@H](OCc2cn(Cc3cc(=O)oc4cc(O)ccc34)nn2)O[C@@H]2O[C@@]3(C)CC[C@H]4[C@H](C)CC[C@@H]1[C@@]24OO3 [3f, 7-hydroxy-4-((4-((10S)-dihydroartemisininoxy)methyl-1H-1,2,3-triazol-1-yl)-methyl)-2H-1-chromen-2-one] | 4.81 | 4.42 | 4.20 | < 4.00 | 4.17 | < 4.00 | 4.01 | < 4.00 | > 10
6.14 | Cc1ccc2oc(=O)cc(Cn3cc(CO[C@H]4O[C@@H]5O[C@@]6(C)CC[C@H]7[C@H](C)CC[C@@H]([C@H]4C)[C@@]57OO6)nn3)c2c1 [3i, 6-methyl-4-((4-((10S)-dihydroartemisininoxy)methyl-1H-1,2,3-triazol-1-yl)-methyl)-2H-1-chromen-2-one] | 5.07 | 4.79 | 4.64 | < 4.00 | < 4.00 | 4.19 | 4.21 | < 4.00 | > 10
5.69 | C[C@H]1[C@@H](OCCc2cn(Cc3cc(=O)oc4cc(O)ccc34)nn2)O[C@@H]2O[C@@]3(C)CC[C@H]4[C@H](C)CC[C@@H]1[C@@]24OO3 [4f, 7-hydroxy-4-((4-(2-((10S)-dihydroartemisininoxy)ethyl)-1H-1,2,3-triazol-1-yl)-methyl)-2H-1-chromen-2-one] | 4.95 | 4.49 | 4.10 | < 4.00 | < 4.00 | < 4.00 | < 4.00 | < 4.00 | > 10
5.87 | Cc1cc(C)c2c(Cn3cc(CCO[C@H]4O[C@@H]5O[C@@]6(C)CC[C@H]7[C@H](C)CC[C@@H]([C@H]4C)[C@@]57OO6)nn3)cc(=O)oc2c1 [4g, 5,7-dimethyl-4-((4-(2-((10S)-dihydroartemisininoxy)ethyl)-1H-1,2,3-triazol-1-yl)-methyl)-2H-1-chromen-2-one] | 5.03 | 4.86 | 4.64 | < 4.00 | 4.59 | 4.46 | < 4.00 | < 4.00 | > 10
